18 compounds from ChEMBL document CHEMBL1152042, “Polyhydroxylated 3-(N-phenyl) carbamoyl-2-iminochromene derivatives as potent inhibitors of tyrosine kinase p60c-src” (Bioorg Med Chem Lett, 1995) can be followed below.

Assay [1] addresses Tyrosine-protein kinase Fyn (Homo sapiens, UniProt P06241). The assay can be described thus: Inhibitory activity against p55 Fyn tyrosine kinase.
For assay [2], the target named is Tyrosine-protein kinase Lyn (Homo sapiens, UniProt P07948). The assay can be described thus: Inhibitory activity against p56 Lyn tyrosine kinase.
Chain of Tyrosine-protein kinase Lyn (P07948 whole entry): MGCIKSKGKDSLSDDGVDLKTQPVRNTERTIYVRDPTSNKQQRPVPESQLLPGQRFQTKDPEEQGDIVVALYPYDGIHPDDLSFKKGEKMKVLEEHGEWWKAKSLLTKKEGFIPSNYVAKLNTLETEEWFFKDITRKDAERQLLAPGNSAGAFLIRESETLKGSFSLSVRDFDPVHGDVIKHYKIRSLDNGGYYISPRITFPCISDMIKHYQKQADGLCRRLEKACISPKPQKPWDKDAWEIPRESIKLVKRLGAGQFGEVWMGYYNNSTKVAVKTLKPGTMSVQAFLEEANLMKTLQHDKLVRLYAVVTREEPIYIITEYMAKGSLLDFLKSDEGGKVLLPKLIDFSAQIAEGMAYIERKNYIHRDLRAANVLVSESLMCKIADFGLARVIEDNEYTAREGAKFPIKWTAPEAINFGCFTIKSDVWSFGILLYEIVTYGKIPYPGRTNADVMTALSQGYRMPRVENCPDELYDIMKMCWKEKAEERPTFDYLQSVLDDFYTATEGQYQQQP
Assay [3] addresses Tyrosine-protein kinase Lck (Homo sapiens, UniProt P06239). The assay can be described thus: Inhibitory activity against p56 Lck tyrosine kinase.
In assay [4] the target is Proto-oncogene tyrosine-protein kinase Src (Homo sapiens, UniProt P12931). Briefly: Inhibitory activity against p60 c-Src tyrosine kinase.
Chain of Proto-oncogene tyrosine-protein kinase Src (P12931 2-536 limits assumed): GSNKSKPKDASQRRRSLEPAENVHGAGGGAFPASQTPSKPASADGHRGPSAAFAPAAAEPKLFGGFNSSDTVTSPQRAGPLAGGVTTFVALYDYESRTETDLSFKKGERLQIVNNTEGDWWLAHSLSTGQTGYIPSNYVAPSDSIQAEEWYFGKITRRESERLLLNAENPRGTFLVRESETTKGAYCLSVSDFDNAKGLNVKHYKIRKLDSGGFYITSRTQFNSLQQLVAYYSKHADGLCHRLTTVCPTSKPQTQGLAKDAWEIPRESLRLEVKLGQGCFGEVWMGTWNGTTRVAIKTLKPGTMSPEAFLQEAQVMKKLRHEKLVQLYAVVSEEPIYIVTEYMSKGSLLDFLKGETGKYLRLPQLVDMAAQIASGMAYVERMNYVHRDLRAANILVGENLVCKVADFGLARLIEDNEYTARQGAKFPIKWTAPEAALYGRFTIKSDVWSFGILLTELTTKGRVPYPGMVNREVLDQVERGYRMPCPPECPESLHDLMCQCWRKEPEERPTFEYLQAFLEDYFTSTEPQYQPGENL

Molecules are shown by their SMILES.

Chain of Tyrosine-protein kinase Lck (P06239 whole entry): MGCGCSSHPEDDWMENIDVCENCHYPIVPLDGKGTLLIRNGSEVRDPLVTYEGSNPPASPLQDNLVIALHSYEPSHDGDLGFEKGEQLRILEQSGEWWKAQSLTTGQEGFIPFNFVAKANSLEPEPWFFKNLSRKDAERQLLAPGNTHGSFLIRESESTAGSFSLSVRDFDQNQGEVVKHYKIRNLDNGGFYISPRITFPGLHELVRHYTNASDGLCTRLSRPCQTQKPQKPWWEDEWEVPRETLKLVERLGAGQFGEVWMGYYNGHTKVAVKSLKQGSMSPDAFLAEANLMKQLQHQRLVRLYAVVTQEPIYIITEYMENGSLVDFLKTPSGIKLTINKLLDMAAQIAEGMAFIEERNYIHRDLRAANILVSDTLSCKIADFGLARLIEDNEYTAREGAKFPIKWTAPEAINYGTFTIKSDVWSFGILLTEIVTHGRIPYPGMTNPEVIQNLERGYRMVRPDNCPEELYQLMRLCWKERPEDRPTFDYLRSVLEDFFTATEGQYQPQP
Chain of Tyrosine-protein kinase Fyn (P06241 whole entry): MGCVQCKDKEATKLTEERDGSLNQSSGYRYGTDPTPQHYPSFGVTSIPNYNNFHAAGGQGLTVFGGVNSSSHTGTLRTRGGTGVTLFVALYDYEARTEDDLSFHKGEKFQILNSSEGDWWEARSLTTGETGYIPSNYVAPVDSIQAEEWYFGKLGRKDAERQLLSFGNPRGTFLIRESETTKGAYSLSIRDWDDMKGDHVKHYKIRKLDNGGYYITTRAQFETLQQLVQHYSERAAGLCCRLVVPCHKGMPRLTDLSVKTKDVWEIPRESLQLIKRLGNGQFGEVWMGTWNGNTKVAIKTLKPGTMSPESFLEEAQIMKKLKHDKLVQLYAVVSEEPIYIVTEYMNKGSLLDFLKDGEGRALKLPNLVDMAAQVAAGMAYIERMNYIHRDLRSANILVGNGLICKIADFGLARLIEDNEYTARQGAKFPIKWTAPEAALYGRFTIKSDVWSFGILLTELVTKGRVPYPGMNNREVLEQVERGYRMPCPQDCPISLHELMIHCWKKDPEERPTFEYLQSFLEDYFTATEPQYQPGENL

As to `N=c1oc2c(O)c(O)ccc2cc1C(=O)Nc1ccccc1CO`, the IC50 in assay [1] and in assay [2] was over 61.3 µM throughout.
With `COc1ccc2cc(C(=O)Nc3ccc(O)cc3)c(=N)oc2c1`, the IC50 in assay [3] and in assay [4] was over 32.2 µM throughout.
Regarding `N=c1oc2cc(O)ccc2cc1C(=O)Nc1ccc(O)cc1`, in assay [3], the IC50 was over 33.8 µM.
Same read-out and setting: the result for `N=c1oc2cc(O)ccc2cc1C(=O)Nc1cccc(O)c1` reads over 33.8 µM.
Compound `N=c1oc2cc(O)cc(O)c2cc1C(=O)Nc1ccccc1O` returned an IC50 in assay [2] of over 16 µM.
In assay [4], `N=c1oc2ccccc2cc1C(=O)Nc1ccccc1O` displayed an IC50 of over 71.4 µM.
The compound `N=c1oc2c(O)cccc2cc1C(=O)Nc1ccc(O)cc1` returned an IC50 in assay [1] of over 67.5 µM.
Regarding `N=c1oc2c(O)c(O)ccc2cc1C(=O)Nc1ccc(O)cc1`, the IC50 in assay [1] and in assay [2] was over 64 µM in each case.
In assay [3], `N=c1oc2ccc(O)cc2cc1C(=O)Nc1cccc(O)c1` returned an IC50 of over 33.8 µM.
As for `N=c1oc2c(O)c(O)ccc2cc1C(=O)Nc1ccccc1O`, the IC50 in assay [1] and in assay [2] was over 64 µM throughout.
On to `N=c1oc2c(O)c(O)ccc2cc1C(=O)Nc1ccccc1`, for which the IC50 in assay [3], in assay [1], in assay [2] and in assay [4] was over 67.5 µM in each case.
Regarding `N=c1oc2c(O)c(O)ccc2cc1C(=O)Nc1cccc(O)c1`, the IC50 in assay [1] is over 64 µM.
For the compound `N=c1oc2c(O)cccc2cc1C(=O)Nc1cccc(CO)c1`, the IC50 in assay [1] was 9.67 µM; in assay [2], 64.5 µM.
For the compound `N=c1oc2c(O)cccc2cc1C(=O)Nc1ccccc1O`, the results for the IC50 in assay [1], in assay [2] and in assay [4] were over 67.5 µM, over 67.5 µM and over 33.8 µM, respectively.
Turning to `N=c1oc2ccc(O)cc2cc1C(=O)Nc1ccc(O)cc1`, the IC50 in assay [3] was over 33.8 µM.
Regarding `N=c1oc2c(O)c(O)ccc2cc1C(=O)Nc1cccc(CO)c1`, the IC50 in assay [3] and in assay [1] was over 61.3 µM throughout.
In assay [4], `N=c1oc2ccccc2cc1C(=O)Nc1ccc(O)cc1` had an IC50 of over 71.4 µM.
The compound `N=c1oc2c(O)cccc2cc1C(=O)Nc1cccc(O)c1` registered an IC50 in assay [2] of under 33.8 µM.

What is called IC50 is the concentration that gives 50% inhibition.
